In PMC4956231, “Molecular Mechanisms for Drug Hypersensitivity Induced by the Malaria Parasite’s Chloroquine Resistance Transporter” (PLoS Pathogens, 2016):
“And” between values parts separate entries of the source, which are not always exact repeats. Identical values can stand only once.

How the values were obtained:
[1] = system: PfCRT^K1; test: [3H]drug transport into Xenopus oocytes expressing PfCRT; assay type: cell-based, Plasmodium falciparum
Experimental: (§1) For each treatment, 10 oocytes were transferred to a 5 mL polystyrene round bottom tube (Falcon) and washed twice with 3.5 mL of ND96 buffer, with the residual buffer removed by pipette. […] The assay was terminated by removing the reaction buffer with a pipette and washing the oocytes twice with 3.5 mL of ice-cold ND96 buffer. Each oocyte was transferred to a separate well of a white 96-well plate (NUNC or PerkinElmer), incubated overnight at room temperature in 30 μL of 10% SDS, and mixed on an orbital shaker the following day for approximately 5 min. The lysed oocyte was then combined with 150 μL of MicroScint-40 microscintillant (PerkinElmer), the plate covered with a TopSeal-A (PerkinElmer), and the radioactivity measured with a PerkinElmer MicroBeta^2 microplate liquid scintillation analyzer.

[2] = target: T1, 76I-PfCRT^K1 (Plasmodium falciparum, UniProt Q9N623, A220S/K76I/M74I/N326S/N75E/Q271E/R371I); assay type: cell-based
T1 sequence (Q9N623 whole entry A220S/K76I/M74I/N326S/N75E/Q271E/R371I): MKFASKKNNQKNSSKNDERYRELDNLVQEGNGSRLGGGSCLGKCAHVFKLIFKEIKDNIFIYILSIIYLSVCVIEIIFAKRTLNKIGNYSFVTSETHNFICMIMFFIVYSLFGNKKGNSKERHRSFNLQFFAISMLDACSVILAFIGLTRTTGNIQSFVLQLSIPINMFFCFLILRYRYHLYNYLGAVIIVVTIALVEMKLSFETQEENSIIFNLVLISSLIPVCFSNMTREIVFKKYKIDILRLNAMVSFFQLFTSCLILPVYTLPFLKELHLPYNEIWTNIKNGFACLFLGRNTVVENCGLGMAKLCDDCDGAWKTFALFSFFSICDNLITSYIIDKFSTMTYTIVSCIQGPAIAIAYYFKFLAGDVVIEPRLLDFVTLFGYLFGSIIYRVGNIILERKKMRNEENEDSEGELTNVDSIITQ
Experimental: as §1

[3] = target: T2, 76I,369F-PfCRT^K1 (Plasmodium falciparum, UniProt Q9N623, A220S/K76I/M74I/N326S/N75E/Q271E/R371I/V369F); test: [3H]drug transport into Xenopus oocytes expressing PfCRT; assay type: cell-based
T2 sequence (Q9N623 whole entry A220S/K76I/M74I/N326S/N75E/Q271E/R371I/V369F): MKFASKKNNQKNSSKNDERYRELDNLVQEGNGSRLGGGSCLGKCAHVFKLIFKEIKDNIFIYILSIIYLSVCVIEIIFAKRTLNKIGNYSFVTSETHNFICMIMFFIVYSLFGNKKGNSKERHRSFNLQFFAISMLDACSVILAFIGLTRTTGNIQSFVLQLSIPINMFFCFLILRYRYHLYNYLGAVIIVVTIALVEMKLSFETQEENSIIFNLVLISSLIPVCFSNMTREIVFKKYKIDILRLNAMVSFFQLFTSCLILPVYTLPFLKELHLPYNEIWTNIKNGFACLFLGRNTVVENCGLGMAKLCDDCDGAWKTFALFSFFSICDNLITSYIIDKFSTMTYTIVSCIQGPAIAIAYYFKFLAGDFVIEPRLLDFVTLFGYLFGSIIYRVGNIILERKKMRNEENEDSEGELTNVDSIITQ
Experimental: as §1

[4] = system: noninjected oocytes; test: [3H]drug uptake into noninjected oocytes (background accumulation); assay type: cell-based, Xenopus laevis; settings: for rate of CQ uptake: [3H]CQ […]
Experimental: as §1

[5] = system: C2^GC03 (PfCRT^3D7); test: P. falciparum H+ efflux assay (DV alkalinization rate); assay type: cell-based, Plasmodium falciparum
Experimental: (§2) Saponin-isolated trophozoite-stage parasites containing the membrane-impermeant pH-sensitive fluorescent indicator fluorescein-dextran (10,000 MW; Life Technologies) in their DVs were prepared as outlined elsewhere. The isolated parasites were washed and suspended in a saline solution (125 mM NaCl, 5 mM KCl, 1 mM MgCl2, 20 mM glucose, 25 mM HEPES; pH 7.1) at a density of 1–3 × 10^7 cells/mL. The fluorometry experiments were performed as described previously. The pH of the DV was monitored at 37°C using a PerkinElmer Life Sciences LS50B fluorometer with a dual excitation Fast Filter accessory (excitation 490 and 450 nm; emission 520 nm). The experiments entailed monitoring the alkalinization of the DV upon addition of the V-type H^+-ATPase inhibitor concanamycin A (100 nM; Sigma-Aldrich), in the presence or absence of the drugs of interest. Half-times for DV alkalinization (t1/2) were calculated as outlined elsewhere. In all cases, five independent experiments were performed on different days.

[6] = system: C4^Dd2 (PfCRT^Dd2); test: as above; assay type: cell-based, Plasmodium falciparum
Experimental: as §2

[7] = system: C6^7G8 (PfCRT^7G8); test: as above; assay type: cell-based, Plasmodium falciparum
Experimental: as §2

[8] = system: 3D7; test: P. falciparum drug susceptibility (parasite proliferation, SYBR Safe); assay type: cell-based; settings: Plasmodium falciparum, Control, 72 h
Experimental: (§3) Parasite proliferation was measured in 96-well plates using a fluorescent DNA-intercalating dye and a protocol described in detail previously. Briefly, cell suspensions containing erythrocytes infected with ring-stage parasites (hematocrit and parasitemia of approximately 2% and 1%, respectively) were incubated at 37°C for 72 h. The samples were frozen, thawed, and then processed by the addition of 100 μL (per well) of SYBR Safe DNA Gel Stain (Molecular Probes; 0.2 μL/mL) in a lysis buffer (20 mM Tris, 5 mM EDTA, 0.008% w/v saponin, and 0.08% v/v Triton X-100; pH 7.5). The fluorescence emanating from each well was measured immediately using a Tecan Infinite M1000 PRO microplate reader (excitation 490 nm; emission 520 nm) and the average fluorescence from wells containing the highest concentration of the drug was subtracted from the resulting values. The level of parasite proliferation in the presence of each drug concentration was expressed as a percentage of the proliferation measured in the absence of the drug for which the IC50 was being determined. The IC50s were determined in SigmaPlot by a least-squares fit of the equation y = a/ [1 ([drug]/IC50)c] to the data, where y is the percent parasite proliferation, a is the maximum change in the percent parasite proliferation, and c is a fitted constant. In all cases, five independent experiments were performed (on different days), and within each experiment measurements were averaged from three replicates.

[9] = system: C2^GC03; test: as above; assay type: cell-based; settings: Plasmodium falciparum, Control, 72 h
Experimental: as §3

[10] = system: C4^Dd2; test: as above; assay type: cell-based; settings: Plasmodium falciparum, Control, 72 h
Experimental: as §3

[11] = system: C6^7G8; test: as above; assay type: cell-based; settings: Plasmodium falciparum, Control, 72 h
Experimental: as §3

[12] = system: Dd2; test: as above; assay type: cell-based; settings: Plasmodium falciparum, DD2, 72 h
Experimental: as §3

[13] = system: P. falciparum isolate HON; settings: HON (PfCRT^3D7); IC50 in line divided by IC50 in drug-sensitive reference strain; cited from earlier work
[14] = target: T2, 76I,369F-PfCRT^K1; test: Inhibition of PfCRT-mediated [3H]CQ transport in oocytes; assay type: cell-based; settings: via 76I,369F-PfCRT^K1 in oocytes
Experimental: as §1
(§4) The IC50 values presented in Fig 3A were determined in SigmaPlot by a least-squares fit of the equation y = y min + [(y max—y min)/(1 + ([inhibitor]/IC50)c] to the data, where y is PfCRT-mediated CQ transport, y min and y max are the minimum and maximum values of y, and c is a fitted constant. PfCRT-mediated CQ transport was calculated by subtracting the uptake measured in the control oocytes (oocytes expressing 76K PfCRT^K1) from that in oocytes expressing 76I-PfCRT^K1 or 76I,369F-PfCRT^K1.

[15] = target: T1, 76I-PfCRT^K1; test: as above; assay type: cell-based; settings: via 76I-PfCRT^K1 in oocytes
Experimental: as §1, §4

In the case of `CCN(CC)CCCC(C)Nc1ccnc2cc(Cl)ccc12` (stereo not shown) [CQ, chloroquine], the “rate of CQ uptake” value ([1]; oocytes expressing PfCRT^K1, [3H]CQ […], pH 6.0, 15 μM unlabeled CQ (Fig 2A)) is reported as 6.75 ± 0.94 pmol per oocyte/h, the “Apparent Vmax” value ([1]; transport via PfCRT^K1 in oocytes, CQ pH 6.0, quinine and quinidine pH 5.0) is reported as 72 ± 3 (9) pmol per oocyte/h and the Km ([1]; transport via PfCRT^K1 in oocytes, CQ pH 6.0, quinine and quinidine pH 5.0, 76K-PfCRT^K1 control subtracted, read-out: Apparent Km) is reported as 282 ± 5 µM. The “Apparent Vmax” value ([2]; transport via 76I-PfCRT^K1 in oocytes, CQ pH 6.0, quinine and quinidine pH 5.0) was 29.3 pmol per oocyte/h and 29.3 ± 7.2^c,f (5) pmol per oocyte/h, the “Apparent Vmax” value ([3]; transport via 76I,369F-PfCRT^K1 in oocytes, CQ pH 6.0) was 13.8 pmol per oocyte/h and 13.8 ± 1.3^c (5) pmol per oocyte/h and the “rate of CQ uptake” value ([4]; pH 5.5, 15 μM unlabeled CQ (S5 Fig)) was 1.41 ± 0.02 pmol per oocyte/h. For the same molecule, the “rate of CQ uptake” value ([4]; pH 6.0, 15 μM unlabeled CQ (Fig 2A)) was 0.98 ± 0.13 pmol per oocyte/h, the “effect on rate of DV alkalinization” value ([5]; C2^GC03 (CQ-sensitive), CQ […], concanamycin A 100 nM) was “without effect” and the “effect on rate of DV alkalinization” value ([6]; C4^Dd2 (CQ-resistant), CQ […], concanamycin A 100 nM) was “increased”. For the same molecule, the “effect on rate of DV alkalinization” value ([7]; C6^7G8 (CQ-resistant), CQ […], concanamycin A 100 nM) was “increased”, the IC50 [8] was 0.025 ± 0.0011 µM and the IC50 [9] was 0.027 ± 0.0016 µM. The IC50 [10] was 0.149 ± 0.0046 µM, the IC50 [11] was 0.087 ± 0.0021 µM and the IC50 [12] was 0.151 ± 0.0048 µM. For the same molecule, the “Drug susceptibility (In vitro resistance index)” value [13] was 1.

For `NC12CC3CC(CC(C3)C1)C2` [amantadine], the “rate of amantadine uptake” value ([1]; PfCRT^K1-expressing oocytes, [3H]amantadine 0.146 μM, pH 5.0, 50 μM unlabeled amantadine) was 12 ± 2.8 nmol per oocyte/h, the “[3H]amantadine accumulation relative to noninjected oocytes” value ([1]; oocytes expressing PfCRT^K1, pH 5.0, 50 μM unlabeled amantadine) was “marked increase” and the “[3H]amantadine accumulation relative to noninjected oocytes” value ([2]; oocytes expressing 76I-PfCRT^K1, pH 5.0, 50 μM unlabeled amantadine) was “marked increase”. For the same molecule, the amantadine transport activity ([3]; oocytes expressing 76I,369F-PfCRT^K1, pH 5.0, 50 μM unlabeled amantadine) was “very low (but statistically significant) level”, the “rate of amantadine uptake” value ([4]; [3H]amantadine 0.146 μM, pH 5.0, 50 μM unlabeled amantadine) was 5.4 ± 0.9 nmol per oocyte/h and the IC50 [14] was 174 ± 26 µM. The IC50 [15] was 186 ± 16 µM, the “substrate of PfCRT in situ (rate of DV alkalinization)” value (“substrate of PfCRT in situ” below) ([5]; C2^GC03, wild-type PfCRT (PfCRT^3D7), amantadine 10 μM) was “not of wild-type PfCRT” and the “substrate of PfCRT in situ” value ([6]; C4^Dd2, PfCRT^Dd2, amantadine 10 μM) was “is a substrate”. For the same molecule, the “substrate of PfCRT in situ” value ([7]; C6^7G8, PfCRT^7G8, amantadine 10 μM) was “is a substrate”, the IC50 [8] was 344 ± 8.9 µM and the IC50 [9] was 335 ± 9.5 µM. The IC50 [10] was 8.4 ± 0.06 µM, the IC50 [11] was 43 ± 2.9 µM and the IC50 [12] was 11 ± 0.1 µM.
